Assay results published in patent US9579328B2, “Prostaglandin and vasoconstrictor pharmaceutical compositions and methods of use” (ALLERGAN, INC., priority 2012, dated 2017).
Counter-ions that a name gives are not always drawn.

Columns and labels:
[1] = test system: rabbit isolated jugular veins; assay: Vasorelaxation in histamine-precontracted rabbit isolated jugular veins; format: cell-based
Text: FIG. 3. Concentration-response curves for (FIG. 3A) bimatoprost and (FIG. 3B) latanoprost free acid in histamine-precontracted endothelium-intact and endothelium-denuded rabbit isolated jugular veins. Results are expressed as mean±S.E.M. of 5-6 animals. FIG. 3A adapted from Chen J et al., Invest Ophthalmol Vis Sci 2004; 45:ARVO E-Abstract 2609; FIG. 3B extends results reported in Chen J et al., Invest Ophthalmol Vis Sci 2004; 45:ARVO E-Abstract 2609; and Pharmacology Review of New Drug Application 21-275. FDA/Center for Drug Evaluation and Research. 2001;Part 1 and Part 2:1-107. Available online at http://www.fda.gov/cder/foi/nda/2001/21275_Lumigan.htm.
FIG. 4. Concentration-response curves for (FIG. 4A) bimatoprost and (FIG. 4B) latanoprost free acid in the presence or absence of indomethacin in endothelium-intact rabbit isolated jugular veins. Results are expressed as mean±S.E.M. of 7 animals and extend previous results reported in Pharmacology Review of New Drug Application 21-275. FDA/Center for Drug Evaluation and Research. 2001;Part 1 and Part 2:1-107. Available online at http://www.fda.gov/cder/foi/nda/2001/21275_Lumigan.htm.
FIG. 5. Concentration-response curves for (FIG. 5A) bimatoprost and (FIG. 5B) latanoprost free acid in the presence of 100 μM L-NAME or 100 (μM D-NAME control in endothelium-intact rabbit isolated jugular veins. Results are expressed as mean±S.E.M. of 6 animals. *P≦0.05, compared to responses in D-NAME pretreated tissues at the same concentration, paired t-test.
The pharmacological mechanism of ocular surface hyperemia elicited by bimatoprost and latanoprost was investigated using the rabbit jugular vein preparation as a quantitative in vitro model (Chen J. et al., Br J Pharmacol 1995; 116:3035-3041). In these studies, tissues were suspended in jacketed organ baths containing Krebs buffer with 1 μM indomethacin (endothelium-intact and -denuded) or in its absence (endothelium-intact) and precontracted with 3 μM histamine. Vasorelaxant and contractile activity were determined as a percentage (%) of the control tone elicited by histamine. Statistical comparisons for the vasorelaxant activity consisted of testing for significance of difference at each of the concentrations tested using the Student'-s t-test for unpaired samples (indomethacin vs no indomethacin) and paired samples (L-NAME vs D-NAME). Differences were considered statistically significant for P-values ≦0.05.
Indomethacin is a cyclooxygenase inhibitor that is routinely used in prostanoid receptor assays (Chen J et al., Current protocols in pharmacology. New York: John Wiley & Sons, Inc., 2001; 4.18.1-4.18.41). Studies of intact and viable isolated tissues, such as the rabbit jejunum (Ferreira S H, Herman A G, Vane J R., Br J Pharmacol 1976; 56:469-477) and human bronchial muscle (Haye-Legrand I, Cerrina J, Raffestin B et al., J Pharmacol Exp Ther 1986; 239:536-541), found the basal output of prostaglandins to be 8-23 pg/mg of tissue at baseline or over 30 min collection periods. In the presence of 1.7 and 2.79 μM indomethacin, the amounts of prostaglandins generated in isolated tissues become negligible (Botting J H, Salzmann R., Br J Pharmacol 1974; 50:119-124; Haye-Legrand I, Cerrina J, Raffestin B et al., J Pharmacol Exp Ther 1986; 239:536-541). The 1 μM concentration of indomethacin in the tissue bath, in our experience, is sufficient to prevent biosynthesis of prostanoids within isolated vascular tissue preparations (Alster P, Wennmalm Å., Eur J Pharmacol 1983; 86:441-446; Chen J et al., Current protocols in pharmacology. New York: John Wiley & Sons, Inc., 2001; 4.18.1-4.18.41). At substantially higher concentrations, indomethacin has been reported to lose selectivity for prostanoid biosynthesis inhibition (Aboulafia J et al., Br J Pharmacol 1976; 58:223-228; Goodfriend T L, Simpson R U., Br J Pharmacol 1981; 72:247-255; Northover B J, Br J Pharmacol 1971; 41:540-551; Sawdy R et al., Br J Pharmacol 1998; 125:1212-1217). […]

[2] = test system: human cultured conjunctiva-derived epithelial cells; conditions: cited from earlier work; for direct stimulation of inflammatory pathways involving adhesion molecules or class II antigens: in vitro; for toxicity observed: primarily related to the concentration of benzalkonium chloride
rabbit eye conjunctiva = conditions: topical dose of 10 μg (0.03%, 30 μl); cited from earlier work
[3] = test system: eyes of conscious Beagle dogs; conditions: cited from earlier work; for effect of L-NAME on elicited ocular surface hyperemia: L-NAME 1% treated eyes, 0-6 h; for conjunctival hyperemia or adverse ocular effects at baseline (time 0): 1% (w/v) topical, dog eyes
[4] = test system: patients with glaucoma or ocular hypertension; conditions: 1 year; bimatoprost 0.03% once or twice daily, timolol maleate 0.5% twice daily; subset of 310 patients; cited from earlier work
[5] = test system: rabbit isolated jugular veins; conditions: rabbit jugular vein; cited from earlier work
[6] = bimatoprost 0.1%, latanoprost 0.005%, PGE2 0.01%

O=C(O)CCC/C=C\C[C@@H]1[C@@H](CC[C@@H](O)CCc2ccccc2)[C@H](O)C[C@@H]1O [Latanoprost free acid, latanoprost free acid]
contraction of the endothelium-denuded preparation ([1]; concentration range of 10^−10 to 10^−6 M): did not contract | response in endothelium-denuded veins ([1]; endothelium-denuded, 10^−5M, latanoprost free acid): only contractions | vasorelaxant response in presence of 100 μM L-NAME compared to 100 μM D-NAME control ([1]; endothelium-intact histamine precontracted tissues, P≦0.05 paired t-test): significantly inhibited | concentration of maximal vasorelaxation ([1]; endothelium-intact preparation): 10^−7 M | response at higher concentrations of 10^−6M and 10^−5M ([1]; endothelium-intact preparation): reversal of the relaxant effects | difference in effects with and without 1 μM indomethacin ([1]; endothelium-intact tissues, each concentration tested): no statistically significant differences

CC(C)OC(=O)CCC/C=C\C[C@@H]1[C@@H](CC[C@@H](O)CCc2ccccc2)[C@H](O)C[C@@H]1O [latanoprost]
direct stimulation of inflammatory pathways involving adhesion molecules or class II antigens [2]: None of the drugs appeared to induce direct stimulation of inflammatory pathways | toxicity observed [2]: mild | acute effects on blood flow in the conjunctiva (rabbit eye conjunctiva): no significant acute effects | ocular surface hyperemic response (severity) ([3]; D-NAME treated control eyes, bimatoprost 0.1%, latanoprost 0.005%, scale 0=none, 0.5=trace, 1=mild, 2=moderate, 3=severe): trace to mild | effect of L-NAME on elicited ocular surface hyperemia [3, 6]: blocked

COC(=O)[C@@H](N)CCCNC(=N)N[N+](=O)[O-] [L-NAME, L-N^G-nitroarginine methyl ester]
conjunctival hyperemia or adverse ocular effects at baseline (time 0) [3]: did not produce conjunctival hyperemia or any adverse ocular effects

CC(C)(C)NC[C@H](O)COc1nsnc1N1CCOCC1 [timolol maleate, (−)-1-tert-butylamino-3-[(4-morpholino-1,2,5-thiodiazol-3yl)oxy]-2-propanol maleate]
mean laser-flare photometry readings and mean changes from baseline [4]: no significant differences among the treatment groups

CCCCC[C@H](O)/C=C/[C@@H]1[C@@H](C/C=C\CCCC(=O)O)[C@@H](O)C[C@H]1O [PGF2a, prostaglandin F2a]
inhibition of response by L-NAME at 100 μM, compared to bimatoprost and latanoprost free acid [5]: less effective

O=C(O)CCC/C=C\C[C@@H]1[C@H](CNNC(=O)Nc2ccccc2)[C@H]2CC[C@@H]1O2 [SQ 29548]
effect of TP antagonist on reversal of the vasorelaxant response to latanoprost free acid ([1]; latanoprost free acid up to 10^−6 M): did not block the reversal of the vasorelaxant response

COC(=O)[C@H](N)CCCN=C(N)N[N+](=O)[O-] [D-NAME]
conjunctival hyperemia or adverse ocular effects at baseline (time 0) [3]: did not produce conjunctival hyperemia or any adverse ocular effects

CCCCC[C@H](O)/C=C/[C@H]1[C@H](O)CC(=O)[C@@H]1C/C=C\CCCC(=O)O [PGE2, prostaglandin E2]
effect of L-NAME on elicited ocular surface hyperemia [3, 6]: had no effect | ocular surface hyperemia severity ([3]; PGE2 0.01%, both D-NAME- and L-NAME-treated eyes, scale 0=none to 3=severe): mild to moderate

CC(C)OC(=O)CCC/C=C\C[C@@H]1[C@@H](/C=C/[C@@H](O)COc2cccc(C(F)(F)F)c2)[C@H](O)C[C@@H]1O [travoprost]
direct stimulation of inflammatory pathways involving adhesion molecules or class II antigens [2]: None of the drugs appeared to induce direct stimulation of inflammatory pathways | toxicity observed [2]: mild
